Laboratory results as given in US11420947B2, “(S)-n-hydroxy-2-(2-(4-methoxyphenyl)butanamido)thiazole-5-carboxamide and pharmaceutically acceptable salts thereof” (TRANSLATIONAL DRUG DEVELOPMENT, LLC, priority 2018, dated 2022).

Assays:
Experiment in all cases: CellTiter-Glo cell viability assay
Assay type in all cases: cell-based
L363 = conditions: for IC50: Homo sapiens, L-363, L363, HEMATOPIETIC, MM, 72 hours
Procedure: (§1) Cell viability in the presence of varying concentrations of the above listed compounds at different time points was used to assess cytotoxicity and the effect of the compounds on cell proliferation.
(§2) Cell viability was measured by the CellTiter-Glo® cell viability assay from Promega (Madison, Wis.). The CellTiter-Glo® Luminescent Cell Viability Assay is a homogeneous method to determine the number of viable cells in culture based on quantitation of the ATP present, which signals the presence of metabolically active cells. Following treatment, CellTiter-Glo® is added to treatment wells and incubated at 37° C. luminescence values were measured at using a Molecular Devices Spectramax microplate reader
(§3) Cells were grown to 70% confluency, trypsinized, counted, and seeded in 96 well flat-bottom plates at a final concentration of 2.5×10^3-5×10^3 cells/well (Day 0). Cells were allowed to incubate in growth media for 24 hours. Treatment with the test agents or standard agents began on Day 1 and continued for 72 hours. At the 72-hour timepoint, treatment containing media was removed. Viable cell numbers are quantified by the CellTiter-Glo® cell viability assay as described above. Results from these studies were used to calculate an IC50 value (concentration of drug that inhibits cell growth by 50 percent of control) for each compound.
(§4) For single agent and combination studies, data from each experiment was collected and expressed as % Cell Growth using the following calculation: % Cell Growth=(ftest/fvehicle)×100
(§5) Where test is the fluorescence of the tested sample, and fvehicle is the fluorescence of the vehicle in which the drug is dissolved. Dose response graphs and IC50 values were generated using Prism 6 software (GraphPad) using the following equation: Y=(Top-Bottom)/(1+10^((logIC^50^-X)-HillSlope))

ACHN = conditions: for IC50: Homo sapiens, ACHN, RENAL, RCC, 72 hours
Procedure: as §1, §2, §3, §4, §5

BxPC-3 = conditions: for IC50: Homo sapiens, BxPC-3, PANCREAS, Pancreatic, 72 hours
Procedure: as §1, §2, §3, §4, §5

KLE = conditions: for IC50: Homo sapiens, KLE, ENDOMETRIAL, 72 hours
Procedure: as §1, §2, §3, §4, §5

NCI-H226 = conditions: for IC50: Homo sapiens, NCI-H226, LUNG, Mesothelioma, 72 hours
Procedure: as §1, §2, §3, §4, §5

HT-29 = conditions: for IC50: Homo sapiens, HT-29, COLON, CRC, 72 hours
Procedure: as §1, §2, §3, §4, §5

Capan-2 = conditions: for IC50: Homo sapiens, Capan-2, PANCREAS, Pancreatic, 72 hours
Procedure: as §1, §2, §3, §4, §5

SNU-1 = conditions: for IC50: Homo sapiens, SNU1, SNU-1, GASTRIC, Carcinoma, 72 hours
Procedure: as §1, §2, §3, §4, §5

OCI-Ly3 = conditions: for IC50: Homo sapiens, OCI-Ly3, HEMATOPIETIC, DLBCL, 72 hours
Procedure: as §1, §2, §3, §4, §5

Cal-27 = conditions: for IC50: Homo sapiens, Cal-27, H&N SQUAMOUS CELL, Tongue, 72 hours
Procedure: as §1, §2, §3, §4, §5

OAW28 = conditions: for IC50: Homo sapiens, OAW-28, OAW28, OVARIAN, ovarian cystadenocarcinoma, 72 hours
Procedure: as §1, §2, §3, §4, §5

A427 = conditions: for IC50: Homo sapiens, A-427, A427, LUNG, Carcinoma, 72 hours
Procedure: as §1, §2, §3, §4, §5

KMM-1 = conditions: for IC50: KMM-1, HEMATOPIETIC, MM, 72 hours
Procedure: as §1, §2, §3, §4, §5

RKO = conditions: for IC50: Homo sapiens, RKO, COLON, CRC, 72 hours
Procedure: as §1, §2, §3, §4, §5

KG-1 = conditions: for IC50: Homo sapiens, KG-1, HEMATOPIETIC, AML, 72 hours
Procedure: as §1, §2, §3, §4, §5

SK-Hep-1 = conditions: for IC50: Homo sapiens, SK-HEP1, SK-Hep-1, LIVER, HCC, 72 hours
Procedure: as §1, §2, §3, §4, §5

ASPC-1 = conditions: for IC50: Homo sapiens, ASPC1, ASPC-1, PANCREAS, Pancreatic, 72 hours
Procedure: as §1, §2, §3, §4, §5

MV411 = conditions: for IC50: Homo sapiens, MV4-11, MV411, HEMATOPIETIC, AML, 72 hours
Procedure: as §1, §2, §3, §4, §5

MDA-MB-468 = conditions: for IC50: Homo sapiens, MDA-MB-468, BREAST, TNBC, 72 hours
Procedure: as §1, §2, §3, §4, §5

BT474 = conditions: for IC50: Homo sapiens, BT-474, BT474, BREAST, Ductal Carcinoma, 72 hours
Procedure: as §1, §2, §3, §4, §5

Hs695T = conditions: for IC50: Homo sapiens, Hs 695T, Hs695T, MELANOMA, LN Met, 72 hours
Procedure: as §1, §2, §3, §4, §5

Huh-7-luc = conditions: for IC50: Huh-7-luc, LIVER, HCC, 72 hours
Procedure: as §1, §2, §3, §4, §5

Raji = conditions: for IC50: Homo sapiens, Raji, HEMATOPIETIC, Burkitt’s, 72 hours
Procedure: as §1, §2, §3, §4, §5

MOLM-13 = conditions: for IC50: Homo sapiens, MOLM-13, HEMATOPIETIC, AML, 72 hours
Procedure: as §1, §2, §3, §4, §5

KMS-34 = conditions: for IC50: KMS-34, HEMATOPIETIC, MM, 72 hours
Procedure: as §1, §2, §3, §4, §5

CCC(C(=O)Nc1ncc(C(=O)NO)s1)c1ccc(OC)cc1 (racemic) [#1, N-hydroxy-2-(2-(4-methoxyphenyl)butanamido)thiazole-5-carboxamide]
IC50 (L363): 0.044 µM | IC50 (ACHN): 0.229 µM | IC50 (BxPC-3): 0.251 µM | IC50 (KLE): 0.215 µM | IC50 (NCI-H226): 0.479 µM | IC50 (HT-29): 0.136 µM | IC50 (Capan-2): 0.363 µM | IC50 (SNU-1): 0.509 µM | IC50 (OCI-Ly3): 0.065 µM | IC50 (Cal-27): 0.215 µM | IC50 (OAW28): 0.288 µM | IC50 (A427): 0.309 µM | IC50 (KMM-1): 0.02 µM | IC50 (RKO): 0.267 µM | IC50 (KG-1): 0.022 µM | IC50 (SK-Hep-1): 0.374 µM | IC50 (ASPC-1): 0.158 µM | IC50 (MV411): 0.007 µM | IC50 (MDA-MB-468): 0.068 µM | IC50 (BT474): 1 µM | IC50 (Hs695T): 0.372 µM | IC50 (Huh-7-luc): 0.185 µM | IC50 (Raji): 0.105 µM | IC50 (MOLM-13): 0.062 µM | IC50 (KMS-34): 0.015 µM

CC[C@H](C(=O)Nc1ncc(C(=O)NO)s1)c1ccc(OC)cc1 [#1a, (S)—N-hydroxy-2-(2-(4-methoxyphenyl)butanamido)thiazole-5-carboxamide]
IC50 (L363): 0.021 µM | #1/#1a (L363; ratio of IC50, L363): 2.1 | #1b/#1a (L363; ratio of IC50, L363): 8.1 | IC50 (ACHN): 0.078 µM | #1/#1a (ACHN; ratio of IC50, ACHN): 2.94 | #1b/#1a (ACHN; ratio of IC50, ACHN): 9.44 | IC50 (BxPC-3): 0.174 µM | #1/#1a (BxPC-3; ratio of IC50, BxPC-3): 1.44 | #1b/#1a (BxPC-3; ratio of IC50, BxPC-3): 6.3 | IC50 (KLE): 0.106 µM | #1/#1a (KLE; ratio of IC50, KLE): 2.03 | #1b/#1a (KLE; ratio of IC50, KLE): 8.03 | IC50 (NCI-H226): 0.2 µM | #1/#1a (NCI-H226; ratio of IC50, NCI-H226): 2.4 | #1b/#1a (NCI-H226; ratio of IC50, NCI-H226): 8.44 | IC50 (HT-29): 0.043 µM | #1/#1a (HT-29; ratio of IC50, HT-29): 3.16 | #1b/#1a (HT-29; ratio of IC50, HT-29): 9.53 | IC50 (Capan-2): 0.136 µM | #1/#1a (Capan-2; ratio of IC50, Capan-2): 2.67 | #1b/#1a (Capan-2; ratio of IC50, Capan-2): 7.13 | #1/#1a (SNU-1; ratio of IC50, SNU-1): 3.86 | #1b/#1a (SNU-1; ratio of IC50, SNU-1): 10.63 | IC50 (OCI-Ly3): 0.035 µM | #1/#1a (OCI-Ly3; ratio of IC50, OCI-Ly3): 1.86 | #1b/#1a (OCI-Ly3; ratio of IC50, OCI-Ly3): 4.86 | IC50 (Cal-27): 0.045 µM | #1/#1a (Cal-27; ratio of IC50, Cal-27): 4.78 | #1b/#1a (Cal-27; ratio of IC50, Cal-27): 10.33 | IC50 (OAW28): 0.085 µM | #1/#1a (OAW28; ratio of IC50, OAW28): 3.39 | #1b/#1a (OAW28; ratio of IC50, OAW28): 6.61 | IC50 (A427): 0.186 µM | #1/#1a (A427; ratio of IC50, A427): 1.66 | #1b/#1a (A427; ratio of IC50, A427): 7.77 | IC50 (KMM-1): 0.019 µM | #1/#1a (KMM-1; ratio of IC50, KMM-1): 1.05 | #1b/#1a (KMM-1; ratio of IC50, KMM-1): 5.53 | IC50 (RKO): 0.145 µM | #1/#1a (RKO; ratio of IC50, RKO): 1.84 | #1b/#1a (RKO; ratio of IC50, RKO): 9.37 | IC50 (KG-1): 0.012 µM | #1/#1a (KG-1; ratio of IC50, KG-1): 1.83 | #1b/#1a (KG-1; ratio of IC50, KG-1): 12.33 | IC50 (SK-Hep-1): 0.149 µM | #1/#1a (SK-Hep-1; ratio of IC50, SK-Hep-1): 2.51 | #1b/#1a (SK-Hep-1; ratio of IC50, SK-Hep-1): 6.71 | IC50 (ASPC-1): 0.112 µM | #1/#1a (ASPC-1; ratio of IC50, ASPC-1): 1.41 | #1b/#1a (ASPC-1; ratio of IC50, ASPC-1): 7.26 | IC50 (MV411): 0.006 µM | #1/#1a (MV411; ratio of IC50, MV411): 1.17 | #1b/#1a (MV411; ratio of IC50, MV411): 3.83 | IC50 (MDA-MB-468): 0.06 µM | #1/#1a (MDA-MB-468; ratio of IC50, MDA-MB-468): 1.13 | #1b/#1a (MDA-MB-468; ratio of IC50, MDA-MB-468): 9.17 | IC50 (BT474): 0.145 µM | #1/#1a (BT474; ratio of IC50, BT474): 6.9 | #1b/#1a (BT474; ratio of IC50, BT474): 20.83 | IC50 (Hs695T): 0.052 µM | #1/#1a (Hs695T; ratio of IC50, Hs695T): 7.15 | #1b/#1a (Hs695T; ratio of IC50, Hs695T): 18.65 | IC50 (Huh-7-luc): 0.068 µM | #1/#1a (Huh-7-luc; ratio of IC50, Huh-7-luc): 2.72 | #1b/#1a (Huh-7-luc; ratio of IC50, Huh-7-luc): 7.25 | IC50 (Raji): 0.036 µM | #1/#1a (Raji; ratio of IC50, Raji): 2.92 | #1b/#1a (Raji; ratio of IC50, Raji): 7.83 | IC50 (MOLM-13): 0.028 µM | #1/#1a (MOLM-13; ratio of IC50, MOLM-13): 2.21 | #1b/#1a (MOLM-13; ratio of IC50, MOLM-13): 7.46 | IC50 (KMS-34): 0.013 µM | #1/#1a (KMS-34; ratio of IC50, KMS-34): 1.15 | #1b/#1a (KMS-34; ratio of IC50, KMS-34): 5.15

CC[C@@H](C(=O)Nc1ncc(C(=O)NO)s1)c1ccc(OC)cc1 [#1b, (R)—N-hydroxy-2-(2-(4-methoxyphenyl)butanamido)thiazole-5-carboxamide]
IC50 (L363): 0.17 µM | IC50 (ACHN): 0.736 µM | IC50 (BxPC-3): 1.1 µM | IC50 (KLE): 0.851 µM | IC50 (NCI-H226): 1.69 µM | IC50 (HT-29): 0.41 µM | IC50 (Capan-2): 0.97 µM | IC50 (SNU-1): 1.4 µM | IC50 (OCI-Ly3): 0.17 µM | IC50 (Cal-27): 0.465 µM | IC50 (OAW28): 0.562 µM | IC50 (A427): 1.45 µM | IC50 (KMM-1): 0.105 µM | IC50 (RKO): 1.36 µM | IC50 (KG-1): 0.148 µM | IC50 (SK-Hep-1): 1 µM | IC50 (ASPC-1): 0.813 µM | IC50 (MV411): 0.023 µM | IC50 (MDA-MB-468): 0.55 µM | IC50 (BT474): 3.02 µM | IC50 (Hs695T): 0.97 µM | IC50 (Huh-7-luc): 0.493 µM | IC50 (Raji): 0.282 µM | IC50 (MOLM-13): 0.209 µM | IC50 (KMS-34): 0.067 µM
